# How the values were obtained:
# [1] = tested on: human multiple myeloma RPMI 8226; assay: Pharmacodynamic study, RPMI 8226 subcutaneous xenograft; type: in vivo, female NOD/SCID mice; details: BIW, tail vein, day of the last administration; for Tumor volume (x ± S): in mm³ (unit assumed)
# Description: The anti-tumor effect in vivo was studied by using the tumor animal model obtained by subcutaneous xenotransplantation of cell lines into female NOD/SCID mice (purchased from Sipeifu Biotechnology Co., Ltd.).
# RPMI 8226 cells were subcutaneously inoculated into NOD/SCID mice, and human multiple myeloma subcutaneously transplanted tumor model was successfully established 9 days after inoculating the cells. The test was divided into vehicle (0.3 mL DMSO, 0.27 mL Tween-80, 2.43 mL normal saline) control group, compound 30 low-dose group (20 mg/kg), compound 30 medium-dose group (30 mg/kg), compound 30 high-dose group (40 mg/kg), compound 39 low-dose group (5 mg/kg), compound 39 medium-dose group (10 mg/kg), and compound 39 high-dose group (15 mg/kg), and bortezomib (API purchased from Yangtze River Pharmaceutical) was used as the positive control group (0.5 mg/kg); 5 tumor-bearing mice established above in each group were administered by tail vein twice a week for nine times in total. The long diameter a (mm) of the tumor and the short diameter b (mm) of the tumor perpendicular to the long diameter were measured with digital electronic caliper twice a week. The calculation formula of tumor volume was: TV=ab^2/2; and the calculation formula of relative tumor volume was: RTV=Vt/Vo, Vo was the tumor volume measured when the mice in each group were divided into cages and administered for the first time (d1), and Vt was the tumor volume measured at the last administration. The animals were sacrificed 31 days (d22) after inoculation of RPMI 8226 cells, and weighed. The tumor mass was dissected and weighed, and the tumor inhibition rate was calculated according to the following formula: […]
# [2] = tested on: colorectal cancer cell line HCT116; assay: CellTiter-Glo tumor cell proliferation, HCT116; type: cell-based, human; details: Homo sapiens, HCT-116; CellTiter-Glo, 72 h
# Method in brief: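 Cells seeded at 2×10^4/mL, grown 24 h at 37° C, 5% CO2, then treated in triplicate with medium-diluted compound for 72 h. CellTiter-Glo luminescence read after 20 min at 37° C; inhibition versus untreated control RLU, IC50 calculated.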
# [3] = target: T1, 20S proteasome β5 subunit (Homo sapiens, UniProt P20618+P28074); assay: Proteasome-Glo Cell-Based assay in K562 cells, β5 subunit; details: 2 h incubation
# T1 construct: endogenous in cells; host or cells: K562
# Description: Proteasome-Glo™ Cell-Based assay kit (Promega, USA) was used to determine the activity of the target compound against the 20S proteasome. Human chronic myeloid leukemia cell line (K562, 6000 cells/well) was inoculated into the 384 well plate in 20 μL/well. The cells were then equilibrated at 37° C., 5% CO2 for 2 hours. Each 384 well plate was set with the mock group and treatment group, and each well of the treatment group was added with 5 μL of the compound solution with the final concentration of 40 μM, 13.3 μM, 4.44 μM, 1.48 μM, 0.49 μM, 0.16 μM, 0.055 μM, 0.0183 μM, […], 0.0061 μM. The cells was incubated with the drugs for 2 hours at 37° C., 5% CO2 before adding 25 μL of corresponding Proteasome-Glo™ Cell-Based reagent per well. The relative luminescence unit (RLU) was measured by using Multimode Microplate Reader Varioskan Flash (Thermo Scientific, USA) after 15 min and compared with the RLU of the control group. SigmaPlot 10.0 software was used to calculate IC50 value.
# [4] = tested on: liver cancer cell line HepG2; assay: CellTiter-Glo tumor cell proliferation, HepG2; type: cell-based, human; details: Homo sapiens, HepG2, 72 h
# Description: The effect of compounds on tumor cell proliferation was detected by CellTiter-Glo method. Human melanoma cell line A375, non-small cell lung cancer cell line A549, human lung adenocarcinoma cell line H1299, colorectal cancer cell line HCT116, liver cancer cell line HepG2 and gastric cancer cell line MGC80-3 were cultured in vitro. The cells were collected after growing to the logarithmic growth phase, centrifuged at 1000 rpm for 5 min, and suspended in an appropriate amount of medium after discarding the supernatant, and the cell concentration was adjusted to 2×10^4/mL. The cell suspension was inoculated onto the 384-well cell culture plate, with 50 μL per well. After being cultured in a cell incubator (37° C., 5% CO2) for 24 h, 5 μL of drug diluted by the cell culture medium was added into each well for the treatment group. Each drug was provided in triplicate. After 72 h incubation in the incubator, 20 μL of CellTiter-Glo was added into each well, and the relative luminescence unit (RLU) was measured with Multimode Microplate Reader Varioskan Flash (Thermo Scientific, USA) after placed at 37° C. for 20 min, and compared with the RLU of the control group. SigmaPlot 10.0 software was used to calculate the inhibition rate and IC50 value.
# HCT116 = assay: MTT antitumor spectrum, HCT116; type: cell-based; details: Homo sapiens, HCT-116, 72 h
# Description: (§1) The activity of compound 30 was evaluated by MTT method against seven tumor cell models, A549, A375, HCT116, MDA-MB-231, HepG2, PC3 and MCF-7. All cells used in the study were prepared at a concentration of 3.5×10^3 cells/mL, and each […] cell suspension was inoculated on a 96-well microtiter plate for 24 hours (37° C., 5% CO2). Then different concentrations of compound 30 were added, incubated for 72 hours; and for the control group, equivalent concentrations of DMSO (final concentration 0.5%) were added. The number of viable cells was measured by MTT (3-(4,5-dimethylthiazol-2-yl)-diphenyl tetrazolium bromide) method, and the OD value at 492/620 nm was recorded. The IC50 value was calculated by Prism-Graphpad software based on the results of triplicate experiments.
# MDA-MB-231 = assay: MTT antitumor spectrum, MDA-MB-231; type: cell-based; details: Homo sapiens, 72 h
# Description: as §1
# A375 = assay: MTT antitumor spectrum, A375; type: cell-based; details: Homo sapiens, A-375, 72 h
# Description: as §1
smiles,measurement,setting,value
"CC(C)C[C@H](NC(=O)Cn1nc(-c2cccc(OCCN3CCN(c4ccccc4)CC3)c2)cc1-c1ccccc1)B(O)O.Cl [Compound 39, (R)-(3-methyl-1-(2-(5-phenyl-3-(3-(2-(4-phenylpiperazin-1-yl)ethoxy)phenyl)-1H-pyrazol-1-yl)acetamido)butyl)boronic acid hydrochloride]",Relative tumor volume (x ± S),[1]; 5 mg/kg,1.51 ± 0.38
same,T/C (%),[1]; 5 mg/kg,16.18%
same,TGI (%),[1]; 5 mg/kg,83.82%
same,Tumor volume (x ± S),[1]; 5 mg/kg,177.55 ± 51.28
same,Relative tumor volume (x ± S),[1]; 10 mg/kg,0.62 ± 0.28
same,T/C (%),[1]; 10 mg/kg,6.65%
same,TGI (%),[1]; 10 mg/kg,93.35%
same,Tumor volume (x ± S),[1]; 10 mg/kg,75.06 ± 19.64
same,Relative tumor volume (x ± S),[1]; 15 mg/kg,0.36 ± 0.02
same,T/C (%),[1]; 15 mg/kg,3.86%
same,TGI (%),[1]; 15 mg/kg,96.14%
same,Tumor volume (x ± S),[1]; 15 mg/kg,21.79 ± 3.50
same,IC50,[2],84 nM
same,IC50,[3],200 nM
same,IC50,[4],54 nM
"CC(C)C[C@H](NC(=O)Cn1nc(-c2cccc(OCCN3CCOCC3)c2)cc1-c1ccccc1)B(O)O.Cl [Compound 30, (R)-(3-methyl-1-(2-(3-(3-(2-morpholinoethoxy)phenyl)-5-phenyl-1H-pyrazol-1-yl)-acetamido)butyl)boronic acid hydrochloride]",Relative tumor volume (x ± S),[1]; 20 mg/kg,2.57 ± 0.61
same,T/C (%),[1]; 20 mg/kg,27.55%
same,TGI (%),[1]; 20 mg/kg,72.45%
same,Tumor volume (x ± S),[1]; 20 mg/kg,267.27 ± 77.46
same,Relative tumor volume (x ± S),[1]; 30 mg/kg,1.63 ± 0.32
same,T/C (%),[1]; 30 mg/kg,17.47%
same,TGI (%),[1]; 30 mg/kg,82.53%
same,Tumor volume (x ± S),[1]; 30 mg/kg,147.56 ± 33.02
same,Relative tumor volume (x ± S),[1]; 40 mg/kg,0.74 ± 0.12
same,T/C (%),[1]; 40 mg/kg,7.93%
same,TGI (%),[1]; 40 mg/kg,92.07%
same,Tumor volume (x ± S),[1]; 40 mg/kg,72.06 ± 13.62
same,IC50,HCT116,630 nM
same,IC50,[2],630 nM
same,IC50,MDA-MB-231,940 nM
same,IC50,A375,820 nM
same,IC50,[3],400 nM

# Reference: US12473305B2, “Pyrazole boronic acid compound, pharmaceutical composition containing same, and uses thereof” (BEIJING SONGRUN PHARMACEUTICAL TECHNOLOGY CO., LTD., priority 2020, dated 2025)
